≈ marks a conversion by molar mass, not a printed value. Counter-ions that a name gives are not always drawn. Like-named read-outs stand apart in the source and are kept apart here.
How the values were obtained:
Assay in all cases: MIC, microdilution broth method
[1] = test system: VRE12201; assay type: cell-based, Enterococcus faecalis; conditions: for MIC, VRE12201: ESKAPE panel, Gram-positive
[2] = test system: PA01; assay type: cell-based, Pseudomonas aeruginosa; conditions: for MIC, PA01: ESKAPE panel, Gram-negative
[3] = test system: Ab17978; assay type: cell-based; conditions: for MIC, Ab17978: ESKAPE panel, Gram-negative
[4] = test system: VRE12204; assay type: cell-based, Enterococcus faecium; conditions: in µg/mL; for MIC: VRE12204; for MIC, VRE12204: ESKAPE panel, Gram-positive
[5] = test system: EC12923; assay type: cell-based; conditions: for MIC, EC12923: ESKAPE panel, Gram-negative
[6] = test system: M6; assay type: cell-based; conditions: for MIC, M6: ESKAPE panel, Gram-negative
[7] = test system: KP13368; assay type: cell-based; conditions: for MIC, KP13368: ESKAPE panel, Gram-negative
[8] = test system: AYE; assay type: cell-based, Acinetobacter baumannii; conditions: for MIC, AYE: ESKAPE panel, Gram-negative
[9] = test system: MSSA9144; assay type: cell-based, Staphylococcus aureus; conditions: for MIC, MSSA9144: ESKAPE panel, Gram-positive
[10] = test system: EMRSA15; assay type: cell-based, Staphylococcus aureus
[11] = test system: EMRSA16; assay type: cell-based, Staphylococcus aureus
[12] = test system: VSE775; assay type: cell-based, Enterococcus faecalis; design: MIC, VSE775: unit not given beside the values; conditions: for MIC, VSE775: ESKAPE panel, Gram-positive
[13] = PA01, Normal (no PMBN), in µg/mL
[14] = Ab17978, Normal (no PMBN), in µg/mL
[15] = KP13368, Normal (no PMBN), in µg/mL
[16] = AYE, Normal (no PMBN), in µg/mL
[17] = Enterococcus faecalis, Enterococcus (VRE12201), Gram-Positive, read-out: MIC
[18] = Pseudomonas aeruginosa (PA01), Gram-Negative, read-out: MIC
[19] = Acinetobacter baumannii (AB17978), Gram-Negative, read-out: MIC
[20] = Escherichia coli (EC12923), Gram-Negative, read-out: MIC
[21] = Klebsiella pneumoniae (M6), Gram-Negative, read-out: MIC
[22] = Klebsiella pneumoniae (KP13368), Gram-Negative, read-out: MIC
[23] = Staphylococcus aureus (MSSA9144), Gram-Positive, read-out: MIC
[24] = ESKAPE panel, Gram-positive, in µg/mL
[25] = Staphylococcus aureus, Staphylococcus aureus (EMRSA15), Gram-Positive (Table 14), read-out: MIC
[26] = Staphylococcus aureus (EMRSA16), Gram-Positive (Table 14), read-out: MIC
[27] = Enterococcus faecalis, Enterococcus (VRE775), Gram-Positive, read-out: MIC

| Compound | MIC ([1]; VRE12201, in µg/mL) | MIC [2, 13] | MIC [3, 14] | MIC [4] | MIC ([5]; EC12923, in µg/mL) | MIC ([6]; M6, Normal (no PMBN), in µg/mL) | MIC [7, 15] | MIC ([9]; MSSA9144, in µg/mL) | MIC ([10]; EMRSA15, in µg/mL) | MIC ([11]; EMRSA16, in µg/mL) | MIC ([12]; VSE775, in µg/mL) | MIC, PA01 ([2]; in µg/mL) | MIC, Ab17978 ([3]; in µg/mL) | MIC, VRE12204 [4] | MIC, EC12923 ([5]; in µg/mL) | MIC, M6 ([6]; in µg/mL) | MIC, KP13368 [7] | MIC, MSSA9144 ([9]; in µg/mL) | MIC, EMRSA15 [10, 24] | MIC, EMRSA16 [11, 24] | further results |
| --- | --- | --- | --- | --- | --- | --- | --- | --- | --- | --- | --- | --- | --- | --- | --- | --- | --- | --- | --- | --- | --- |
| C[C@H]1COc2c(N3CCC(Nc4ncccn4)C3)c(F)cc3c(=O)c(C(=O)O)cn1c23 (stereo partly drawn) [Compound 82-KSN-L7, (3S)-9-fluoro-3-methyl-7-oxo-10-(3-(pyrimidin-2-ylamino)-pyrrolidin-1-yl)-2,3-dihydro-7H-[1,4]oxazino[2,3,4-ij]quinoline-6-carboxylic acid] | 0.5 | 16 | 1 | 4 | 1 | 2-4 | 16 | ≤0.125-4 | 4 | 4 | 1-2 | – | – | – | – | – | – | – | – | – | MIC [8, 16]: 64 |
| COC(=O)c1cnc(N2CCN(c3c(F)cc4c(=O)c(C(=O)O)cn5c4c3OC[C@@H]5C)CC2)nc1 [Compound 82-KSN-L8] | 2 | 32 | 2 | 4 | 4 | 4 | 32 | ≤0.12 | 8 | 16 | 4 | – | – | – | – | – | – | – | – | – | – |
| C[C@H]1COc2c(N3CC[C@@H](Nc4cnccn4)C3)c(F)cc3c(=O)c(C(=O)O)cn1c23 [KSN-BL1, (S)-9-fluoro-3-methyl-7-oxo-10-((R)-3-(pyrazin-2-ylamino)pyrrolidin-1-yl)-2,3-dihydro-7H-[1,4]oxazino[2,3,4-ij]quinoline-6-carboxylic acid] | – | – | – | – | – | – | – | – | – | – | – | 4 | 0.25 | 0.5 | 0.25-0.5 | 0.5 | 8 µg/mL (≈ 18.8 µM) | ≤0.125 | 1 | 1 | MIC, VRE12201 ([1]; in µg/mL): ≤0.125; MIC [1, 17]: ≤ 0.125 µg/mL; MIC [2, 18]: 4 µg/mL (≈ 9.4 µM); MIC [3, 19]: 0.25 µg/mL (≈ 0.588 µM); MIC [5, 20]: 0.25 µg/mL (≈ 0.588 µM); MIC [6, 21]: 0 to 5 µg/mL; MIC [7, 22]: 8 µg/mL (≈ 18.8 µM); MIC ([8]; Acinetobacter baumannii (AYE), Gram-Negative, read-out: MIC): 8 µg/mL (≈ 18.8 µM); MIC, AYE ([8]; in µg/mL): 8; MIC [9, 23]: ≤ 0.125 µg/mL; MIC, EMRSA15 ([10]; EMRSA15 (Table 16, role of the terminal pyrimidine ring), in µg/mL): 1; MIC [10, 25]: 1 µg/mL (≈ 2.35 µM); MIC, EMRSA16 ([11]; EMRSA16 (Table 16, role of the terminal pyrimidine ring), in µg/mL): 1; MIC [11, 26]: 1 µg/mL (≈ 2.35 µM); MIC, VSE775 [12]: ≤0.125; MIC [12, 27]: ≤ 0.125 µg/mL |
| C[C@H]1COc2c(N3CCC(N4CCN(C)CC4)C3)c(F)cc3c(=O)c(C(=O)O)cn1c23 (stereo partly drawn) [KSN-L31, (3S)-9-fluoro-3-methyl-10-(3-(4-methylpiperazin-1-yl)pyrrolidin-1-yl)-7-oxo-2,3-dihydro-7H-[1,4]oxazino[2,3,4-ij]quinoline-6-carboxylic acid] | – | – | – | – | – | – | – | – | – | – | – | 64 | 4 | 8 | 2 | 4 | 64 µg/mL (≈ 149 µM) | 0.5-1 | 64 | 64 | MIC, VRE12201 ([1]; in µg/mL): 2; MIC, VSE775 [12]: 4 |
| C[C@H]1COc2c(N3CCC(N4CCOCC4)C3)c(F)cc3c(=O)c(C(=O)O)cn1c23 (stereo partly drawn) [KSN-L33, (3S)-9-fluoro-3-methyl-10-(3-morpholinopyrrolidin-1-yl)-7-oxo-2,3-dihydro-7H-[1,4]oxazino[2,3,4-ij]quinoline-6-carboxylic acid] | – | – | – | – | – | – | – | – | – | – | – | 32-64 | 2 | 4 | 2 | 8 | 32 µg/mL (≈ 76.7 µM) | 0.25 | 16 | 16-32 | MIC, VRE12201 ([1]; in µg/mL): 2; MIC, VSE775 [12]: 4 |
| C[C@H]1COc2c(N3CC[C@H](Nc4ncc(N)cn4)C3)c(F)cc3c(=O)c(C(=O)O)cn1c23 [KSN-L62, (S)-10-((S)-3-((5-aminopyrimidin-2-yl)amino)pyrrolidin-1-yl)-9-fluoro-3-methyl-7-oxo-2,3-dihydro-7H-[1,4]oxazino[2,3,4-ij]quinoline-6-carboxylic acid] | – | – | – | – | – | – | – | – | – | – | – | 8 | 0.25 | 1 | 1 | 1 | 16 µg/mL (≈ 36.3 µM) | ≤0.125 | 1 | 4 | MIC, VRE12201 ([1]; in µg/mL): ≤0.125; MIC, AYE ([8]; in µg/mL): 4; MIC, VSE775 [12]: ≤0.125 |
| O=C(O)c1cn(C2CC2)c2cc(N3CCN(Cc4cccc5c4OCO5)CC3)c(F)cc2c1=O [ML-77-032] | 1 | 16 | 0.25 | – | – | 2 | – | 0.25-1 | – | 64 | 2 | – | – | – | – | – | – | – | – | – | MIC [8, 16]: 64 |
| O=C(O)c1cn(C2CC2)c2cc(N3CCN(Cc4ccccc4)CC3)c(F)cc2c1=O [ML-77-046] | 1-2 | – | 0.25 | 4-8 | – | 2 | – | 0.12-0.25 | – | 32 | 2-4 | – | – | – | – | – | – | – | – | – | MIC [8, 16]: 64-128 |
| O=C(O)c1cn(C2CC2)c2cc(N3CCN(Cc4ccc(CO)cc4)CC3)c(F)cc2c1=O [ML-77-147] | 0.5 | – | 0.25-0.5 | – | – | 0.5-1 | – | <0.12 | 8 | 8 | 1 | – | – | – | – | – | – | – | – | – | MIC [8, 16]: 16-32 |
| C[C@H]1COc2c(N3CCN(c4ncc(F)cn4)CC3)c(F)cc3c(=O)c(C(=O)O)cn1c23 [ML-83-010] | – | – | – | – | – | – | – | – | – | – | – | 64 | 2 | 1-4 | 2 | 4 | 32 µg/mL (≈ 72.2 µM) | – | 2 | 2 | MIC [1, 17]: ≤ 0.125 µg/mL; MIC [2, 18]: 64 µg/mL (≈ 144 µM); MIC [3, 19]: 2 µg/mL (≈ 4.51 µM); MIC [5, 20]: 2 µg/mL (≈ 4.51 µM); MIC [6, 21]: 4 µg/mL (≈ 9.02 µM); MIC [7, 22]: 32 µg/mL (≈ 72.2 µM); MIC [9, 23]: ≤ 0.125 µg/mL; MIC [10, 25]: 2 µg/mL (≈ 4.51 µM); MIC [11, 26]: 2 µg/mL (≈ 4.51 µM); MIC, VSE775 [12]: < 0.125 - 0.5; MIC [12, 27]: 0.5 µg/mL (≈ 1.13 µM) |
| Cc1cc(N2CCN(c3c(F)cc4c(=O)c(C(=O)O)cn5c4c3OC[C@@H]5C)CC2)nc(C(C)C)n1 [ML-83-012, hydrochloride] | – | – | – | – | – | – | – | – | – | – | – | – | – | – | – | – | – | 0.25 | – | – | MIC, PA01 ([2]; hydrochloride, in µg/mL): 32; MIC, Ab17978 ([3]; hydrochloride, in µg/mL): 8; MIC, EC12923 ([5]; hydrochloride, in µg/mL): 4; MIC, M6 ([6]; hydrochloride, in µg/mL): 16; MIC ([7]; Klebsiella pneumoniae (KP13368), Gram-Negative): 64 µg/mL; MIC ([9]; Staphylococcus aureus (MSSA9144), Gram-Positive): 0.25 µg/mL; MIC ([11]; Staphylococcus aureus (EMRSA16), Gram-Positive (Table 14), hydrochloride): 2 µg/mL; MIC ([12]; Enterococcus (VRE775), Gram-Positive): 0 to 5 µg/mL |
| C[C@H]1COc2c(N3CCN(c4ccccn4)CC3)c(F)cc3c(=O)c(C(=O)O)cn1c23 [ML-83-0018, (S)-9-fluoro-3-methyl-7-oxo-w-(4-(pyridin-2-yl)piperazin-1-yl)-2,3-dihydro-7H-[1,4]oxazino[2,3,4-ij]quinoline-6-carboxylic acid] | 0.25 | 64 | 2 | 2 | 2-4 | 8 | 32 | ≤0.12 | 4 | 8 | 0.25-0.5 | – | – | – | – | – | – | – | – | – | – |
| C[C@H]1COc2c(N3CCC(n4cccn4)CC3)c(F)cc3c(=O)c(C(=O)O)cn1c23 [ML-83-041, (S)-10-(4-(1H-pyrazol-1-yl)piperidin-1-yl)-9-fluoro-3-methyl-7-oxo-2,3-dihydro-7H-[1,4]oxazino[2,3,4-ij]quinoline-6-carboxylic acid] | 8 | 64 | 4-8 | 16 | 2 | 4 | 32 | 2 | – | – | 8 | – | – | – | – | – | – | – | – | – | – |
| CCn1cc(C(=O)O)c(=O)c2cc(F)c(N3CCN(Cc4ccc(COC)cc4)CC3)cc21 [ML-83-052, 1-ethyl-6-fluoro-7-(4-(4-(methoxymethyl)benzyl)piperazin-1-yl)-4-oxo-1,4-dihydroquinoline-3-carboxylic acid] | 8 | – | 4 | 16 | 4 | 8-16 | 64 | 0.5-1 | 64-128 | 64 | 8-16 | – | – | – | – | – | – | – | – | – | – |
